In publication PMC9516332 (Frontiers in Oncology, 2022):
Where two headings read alike, the source gives them in different places.

Legend:
Test in all cases: Kinase panel profiling at 1 µmol/L (MSA or IMAP), percentage inhibition
Type in all cases: biochemical
[1] = target: panel of 255 wild-type kinases (Homo sapiens, UniProt Q00526); conditions: CDK3/CycE1 kinase assay; 1 µmol/L single concentration; read-out: %-inhibition CDK3/CycE1
[2] = target: panel of 255 wild-type kinases (Homo sapiens, UniProt P17612); conditions: read-out: %-inhibition at 1 µmol/L, PKACα
[3] = target: T1, panel of 255 wild-type kinases (Homo sapiens, UniProt Q8TDC3); conditions: BRSK1 kinase assay; 1 µmol/L single concentration; read-out: %-inhibition BRSK1
T1 sequence (Q8TDC3 1-778): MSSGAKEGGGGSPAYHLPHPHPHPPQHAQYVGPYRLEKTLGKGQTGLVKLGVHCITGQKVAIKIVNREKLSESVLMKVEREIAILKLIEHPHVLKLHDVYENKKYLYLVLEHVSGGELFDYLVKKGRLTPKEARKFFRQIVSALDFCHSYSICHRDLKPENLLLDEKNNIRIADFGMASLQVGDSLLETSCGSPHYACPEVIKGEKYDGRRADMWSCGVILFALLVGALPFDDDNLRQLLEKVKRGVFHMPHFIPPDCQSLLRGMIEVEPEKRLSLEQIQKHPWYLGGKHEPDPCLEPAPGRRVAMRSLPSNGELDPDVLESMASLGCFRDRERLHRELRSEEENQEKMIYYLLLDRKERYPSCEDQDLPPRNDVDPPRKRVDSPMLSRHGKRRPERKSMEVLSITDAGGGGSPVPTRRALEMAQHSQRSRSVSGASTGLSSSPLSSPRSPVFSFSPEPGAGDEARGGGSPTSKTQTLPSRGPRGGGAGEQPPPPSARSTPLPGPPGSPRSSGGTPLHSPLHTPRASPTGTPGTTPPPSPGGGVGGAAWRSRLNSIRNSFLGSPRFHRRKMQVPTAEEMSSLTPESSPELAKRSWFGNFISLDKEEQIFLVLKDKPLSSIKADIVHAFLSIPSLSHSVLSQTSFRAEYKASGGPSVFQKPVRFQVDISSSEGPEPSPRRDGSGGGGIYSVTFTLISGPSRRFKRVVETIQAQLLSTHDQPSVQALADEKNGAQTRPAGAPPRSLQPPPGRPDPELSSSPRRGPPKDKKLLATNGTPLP

[4] = target: panel of 255 wild-type kinases (Homo sapiens, UniProt Q06187); conditions: BTK kinase assay; 1 µmol/L single concentration; read-out: %-inhibition BTK
[5] = target: panel of 255 wild-type kinases (Homo sapiens, UniProt Q05655); conditions: kinase PKCδ; 1 µmol/L single concentration; read-out: %-inhibition at 1 µmol/L, PKCδ
[6] = target: panel of 255 wild-type kinases (Homo sapiens, UniProt P17948); conditions: kinase FLT1; 1 µmol/L single concentration; read-out: %-inhibition at 1 µmol/L, FLT1
[7] = target: panel of 255 wild-type kinases (Homo sapiens, UniProt Q9P289); conditions: MST4; 1 µmol/L single concentration; read-out: %-inhibition, MST4
[8] = target: panel of 255 wild-type kinases (Homo sapiens, UniProt Q04759); conditions: kinase PKCθ; 1 µmol/L single concentration; read-out: %-inhibition at 1 µmol/L, PKCθ
[9] = target: panel of 255 wild-type kinases (Homo sapiens, UniProt Q7KZI7); conditions: MARK2; 1 µmol/L single concentration; read-out: %-inhibition, MARK2
[10] = target: panel of 255 wild-type kinases (Homo sapiens, UniProt Q15119); conditions: kinase PDHK2; 1 µmol/L single concentration; read-out: %-inhibition at 1 µmol/L, PDHK2
[11] = target: panel of 255 wild-type kinases (Homo sapiens, UniProt P54756); conditions: kinase EPHA5; 1 µmol/L single concentration; read-out: %-inhibition at 1 µmol/L, EPHA5
[12] = target: panel of 255 wild-type kinases (Homo sapiens, UniProt P04629); conditions: kinase TRKA; 1 µmol/L single concentration; read-out: %-inhibition at 1 µmol/L, TRKA
[13] = target: panel of 255 wild-type kinases (Homo sapiens, UniProt O60674); conditions: kinase JAK2; 1 µmol/L single concentration; read-out: %-inhibition at 1 µmol/L, JAK2
[14] = target: panel of 255 wild-type kinases (Homo sapiens, UniProt Q8TDX7); conditions: NEK7; 1 µmol/L single concentration; read-out: %-inhibition, NEK7
[15] = target: panel of 255 wild-type kinases (Homo sapiens, UniProt O96017); conditions: CHK2 kinase assay; 1 µmol/L single concentration; read-out: %-inhibition CHK2
[16] = target: panel of 255 wild-type kinases (Homo sapiens, UniProt P19784); conditions: kinase CK2α2/β; 1 µmol/L single concentration; read-out: %-inhibition at 1 µmol/L, CK2α2/β
[17] = kinase PKACα, 1 µmol/L single concentration

Compound	inhibition at 1 µM [1] [%]	inhibition at 1 µM [2] [%]	inhibition at 1 µM [3] [%]	inhibition at 1 µM [4] [%]	inhibition at 1 µM [5] [%]	inhibition at 1 µM [6] [%]	inhibition at 1 µM [7] [%]	inhibition at 1 µM [8] [%]	inhibition at 1 µM [9] [%]	inhibition at 1 µM [10] [%]	inhibition at 1 µM [11] [%]	inhibition at 1 µM [12] [%]	inhibition at 1 µM [13] [%]	inhibition at 1 µM [14] [%]	inhibition at 1 µM [15] [%]	inhibition at 1 µM [16] [%]	inhibition at 1 µM [2, 17] [%]
CCc1nc(C(N)=O)c(Nc2ccc(N3CCC(N4CCN(C)CC4)CC3)c(OC)c2)nc1NC1CCOCC1 [gilteritinib]	7	7	23	81	12	95	4.67	12	43	5	52	100	95	-2	75	23	–
COc1cc2ncnc(Nc3ccc(F)c(Cl)c3)c2cc1NC(=O)/C=C/CN1CCCCC1 [dacomitinib]	-1.66	–	14	43	9	20	12	1.57	-0.433	2.44	34	6	0.856	-4.37	23	1.11	-11
Cn1cc(-c2cc3c(N4CCN(c5ncc([C@@](C)(N)c6ccc(F)cc6)cn5)CC4)ncnn3c2)cn1 [avapritinib]	-2.7	–	8.49	13	5	76	7	2.6	-12	0.651	41	65	52	-11	5.47	-1.79	-20
CCn1c(=O)c(-c2cc(NC(=O)Nc3ccccc3)c(F)cc2Br)cc2cnc(NC)cc21 [ripretinib]	-4.34	–	1.77	4.22	54	91	-0.174	-3	-2.22	0.884	100	42	63	-7	6	-0.613	-16
